Laboratory results: patent US20140271922A1, “PIRENZEPINE AS AN AGENT IN CANCER TREATMENT” (PROTEOSYS AG, priority 2009, published 2014)
Entries after “also recorded” stand apart in the source; their conditions may differ.

Tested on: Human H460 Large Cell Lung Cancer (NCI-H460 human NSCLC cells)
Assay: Tumor growth in the H460 lung tumor xenograft model
Assay type: in vivo, Female NMRI nude mice
Conditions: for effect on tumor growth, single agent (in words): PSY 310 alone, 50 mg/kg/d po, 50 mg/kg/day; for potentiation of the cytostatic effects of cisplatin (in words): PSY 310 po co-administered with cisplatin ip
Description: PSY 310 was tested with 2 different dosing schedules of cisplatin. • Animals: Female NMRI nude mice (Janvier, Le Genest St Isle, France), age: 6-7 weeks at start of experiment Janvier, Le Genest St Isle, France; age 5-6 weeks). 70 animals were inoculated at the beginning of the experiment. • Cells: Human H460 Large Cell Lung Cancer (ATCC: HTB-177); • 3×10^6 cells from cell culture was inoculated subcutaneously per mouse in a volume of 200 μl on day 0. • Application route: subcutaneously; • 1 tumor/mouse • Tumor volume at • start of therapy: 62.5-100 mm^3 • (formula: a×b^2×0.5; a: length, b width) • Test compounds: Cisplatin, • PSY 310 (Pirenzepine) • Dosing: Cisplatin • 1) high dose: 1×/week, 2 weeks (days 7, 14) • dose: 2.5 mg/kg/day; route: ip • 2) low dose 5×/week, 2 weeks (days 7-11+14-18) • dose: 0.15 mg/kg/day; route: ip • PSY 310 • 1×/day for 12 days (days 7-19) • dose: 50 and 20 mg/kg/day; route: po • Vehicle/solvent: Cisplatin:water for injection • PSY 310: PBS, oral gavage • Application volume: 10 ml/kg • Criteria for study termination: Animal weight loss >20% • Tumor >10% body weight or ulceration of tumors • Parameters: […] [table] [table] NCI-H460 human NSCLC cells were implanted in the flanks of immunodeficient mice and growth of the resultant solid tumors was recorded. Mice were assigned to seven treatment groups as indicated above. Tumor dimensions (and animal body weights) were measured on days 10, 14, 17, and 21 after inoculation, and tumor volumes were calculated. As tumor growth was close to exponential evaluations were performed on the common logarithms of tumor volumes in order to render the data suitable for evaluation by a linear model. […] Alternatively, the ratios log(volume)/log(initial volume) were employed, yielding very similar results. Tumors with extremely small initial volumes (<20 μl) in which volume measurements are expected to be rather imprecise were omitted from the evaluations. Comparisons were carried out in the following way: • The slopes of log(volume) over time (i.e. the exponent of the approximately exponential volume growth) were determined for each animal. The ratios of the exponents averaged over the respective groups are given as a measure of the magnitude of the growth retarding effect of the current treatment. • Multivariate variance analyses using the day of measurement and Cisplatin/PSY 310 treatment as model effects were performed.

Structure (SMILES)	exponent ratio (ratio of group-averaged slopes of log(tumor volume) over time) (Cisplatin high (2.5 mg/kg/day ip) versus Cisplatin low (0.15 mg/kg/day ip), ANOVA p = 0.91)	exponent ratio (ratio of group-averaged slopes of log(tumor volume) over time) (Cisplatin high (2.5 mg/kg/day ip, 1x/week, 2 weeks) versus Control, ANOVA p = 0.014)	exponent ratio (ratio of group-averaged slopes of log(tumor volume) over time) (Cisplatin low (0.15 mg/kg/day ip, 5x/week, 2 weeks) versus Control, ANOVA p = 0.077)	effect on tumor growth of cisplatin alone (in words) (cisplatin ip, low and high dose regimens)	exponent ratio (ratio of group-averaged slopes of log(tumor volume) over time) (PSY 310 50 mg/kg/day po alone (1x/day, 12 days) versus Cisplatin high, ANOVA p = 0.016)	exponent ratio (ratio of group-averaged slopes of log(tumor volume) over time) (PSY 310 50 mg/kg/day po alone (1x/day, 12 days) versus Control, ANOVA p = 0.0003)	effect on tumor growth, single agent (in words)	effect on tumor growth, single agent (in words) (listed as Pirenzepine)	potentiation of the cytostatic effects of cisplatin (in words)	potentiation of the cytostatic effects of cisplatin (in words) (listed as Pirenzepine)
N.N.[Cl][Pt][Cl] [Cisplatin]	0.96	0.81	0.85	moderate effects						
CN1CCN(CC(=O)N2c3ccccc3C(=O)Nc3cccnc32)CC1 [PSY 310]					0.74	0.61	even more effective than cisplatin-low dose and cisplatin-high dose regimens; also recorded: single agent cytostatic properties; also recorded: major effect	significant anti-cancer activity by itself	potentiating the cytostatic effects of cisplatin	significant potentiating anti-cancer activity
